# Assay results published in patent US11260050B2, “Combination of cotinine plus antioxidant for treatment-resistant depression and correction of astrocytes functional deficit induced by depression and other neuropathological” (UNIVERSIDAD SAN SEBASTIAN, priority 2017, dated 2022).
# Columns and labels:
# [1] = system: restrained mice; experiment: Forced swim test, oral co-treatment during restraint stress (Example 3); assay type: in vivo, C57BL/6J mice; conditions: oral cotinine 5 mg/kg, KO 143 mg/kg or both, vs vehicle-treated restrained mice
# Description: (§1) Mice after acclimatization and one week of handling were randomly divided into five groups (n=8/condition) and orally treated as follow: 1) control non-restrained mice treated with vehicle (PBS, pH 7.4); 2) restrained mice treated with vehicle; 3), restrained mice treated with a cotinine solution (5 mg/kg in PBS, pH 7.4) via gavage; 4) restrained mice treated with KO (143 mg/kg); 5) restrained mice treated with cotinine plus KO solution. Mice were started with treatments, the first day of restraint and continuously until euthanasia. Treatments were administered at the same time of the day, 30 min before restraint. After 21 days into treatments, mice were behaviorally tested (FIG. 17).
# (§2) Restraint stress (RS) was used as a model of chronic stress-induced depressive-like behavior and cognitive impairment. We used this task because is a reliable method that mimics the effects of chronic stress without causing physical pain or unnecessary discomfort to the mice. Mice were gently introduced into a 50-ml conical transparent plastic tubes (Corning Inc.). The tubes contain non-protruding perforations in both ends and in the walls to permit ventilation and only permitted slight movements. […]
# The forced swim (FS) is a broadly used task to assess depressive-like behavior in rodents. […] Immobility time was recorded and quantified by two investigators blind to the treatment groups.
# [2] = system: restrained mice; experiment: Open field test, oral co-treatment during restraint stress (Example 3); assay type: in vivo, C57BL/6J mice; conditions: oral cotinine 5 mg/kg, KO 143 mg/kg or both, 25 min
# Description: as §1
# as §2, with “Inc.).” for “Inc.). The tubes contain non-protruding perforations in both ends and in the walls to permit ventilation and only permitted slight movements.”
# The open field (OF) test was conducted as previously described with minor modifications to identify changes in locomotor activity in response to stress and/or drug treatments. […] Total distance traveled, and time spent in the center zone were measured under moderate lighting using the video tracking software (ANY-Maze, Stoelting Co.).
# [3] = system: restrained C57BL/6 mice; conditions: oral cotinine administered before and continuously to restrained C57BL/6 mice; cited from earlier work
# [4] = system: conditioned mice; experiment: Fear retention and extinction tests after fear conditioning (Example 4); assay type: in vivo, Mice C57BL/6
# Description: Three-month-old mice (n=5-6/condition) were weighed and assigned to treatment groups. Mice were treated with vehicle or drugs, starting two h after fear conditioning and daily after behavioral testing until euthanasia. Mice received daily treatments with 1. PBS (phosphate buffer saline, pH 7.4) via intranasal; 2. Cotinine (10 mg/ml) dissolved in PBS via intranasal (IN Cot, 24 μl); 3. Krill oil dissolved in PBS, via intranasal (48 mg/ml, 24 μl); 4. Cotinine (10 mg/ml) plus krill oil dissolved in PBS, via intranasal (48 mg/ml, 24 μl); 5.
# For intranasal delivery, mice were hand-restrained, placed in a supine position, and given two 12 μl drops of cotinine solutions, or PBS, into both nares consecutively. Mice were given an extra 12 μl treatment drop if the subject forcibly ejected or sneezed out the solution. Mice were held supine for 5-10 seconds after delivery to ensure that all fluid was inhaled.
# Contextual fear conditioning was performed as described. The conditioning chamber used (33 cm×20 cm×22 cm) is surrounded by a sound-attenuating box with a camera connected to freeze frame software (MED Associates Inc.) and equipped to provide a background white noise (72 dB). The conditioning chamber contains in one side a speaker and in the opposite side has a 24V light, and a 36-bar insulated shock grid floor. To perform this test, each mouse was placed in the conditioning chamber for 2 min before the onset of a discrete tone (a sound that will last 30 seconds (sec) at 2,800 Hz and 85 dB). In the last two seconds of this tone, mice received a foot shock of 1 mA, kept in the conditioning chamber for 2 min and returned to their home cages. Between trials, the chamber was sanitized with 70% ethanol and dried. Freezing behavior was defined as the absence of all movement except the one needed for breathing was assessed using the FreezeView Software (MED Associates Inc.).
# Fear retention and extinction experiments were performed as described, using the same cohorts of mice and reproduced in two separate experiments. To assess fear retention and mice underwent re-exposure to the conditioning chamber in the absence of an unconditioned stimulus (shock or auditory cues) for 3 minutes (min) in daily extinction trials. Freezing behavior was measured using the ANY-Maze® software (Stoelting CO, USA). The extinction trials were continued until the decrease in freezing behavior reached a stable level.
# [5] = system: mice subjected to fear conditioning; experiment: Contextual fear retention and extinction (Example 1, Experiment 3); assay type: in vivo, C57BL/6 mice
# Source text: Between trials, the chamber was sanitized with 70% ethanol and dried.
# [6] = system: GFAP; experiment: GFAP immunofluorescence, morphometric analysis and cell counting in the dentate gyrus (Example 3); assay type: in vivo, C57BL/6J mice; conditions: restrained mice, oral co-treatment; vs vehicle-treated restrained mice
# Description: For the immunohistochemistry (IHC) and fluorescent IHC (F-IHC) analysis the right hemisphere of each mouse brain was placed in 4% paraformaldehyde in PBS pH 7.4 at 4° C. for 24 h. The tissues were embedded in 2% agarose molds for vibratome sectioning.
# For the F-IHC, samples were washes 3 times for 7 min with Tris-buffered saline (TBS), pH 7.8. The primary antibody anti-GFAP (1:50, BioSB) was diluted in diluent buffer, containing TBS supplemented with 1% bovine serum albumin (BSA) and 0.2% Triton X-100, and incubated with the tissue sections overnight (ON) at 4° C. […] The samples were counterstained with Hoechst (1:1000) and mounted with fluorescence mounting medium (Prolong, Invitrogen). […]
# In each image, a region of interest (ROI) that represented the dentate gyrus was determined using free-hand drawing. For each ROI, the mean gray values (MGV), representing the area fraction with immunoreactivity for GFAP, were measured. To measure the fluorescence intensity of GFAP immunostaining in the dentate gyrus, maximum intensity projections of confocal z-stacks acquired from sagittal brain sections were converted into 8-bit greyscale images with 256 scales (pixel intensity 0 corresponding to no signal and 255 to maximal signal) by ImageJ software. […] For the GFAP+ cell counting, cell to be counted must had at least half of the cell nucleus visible on the edge of the ROI and cells were not included in the analysis if they were adherent to blood vessel walls.
# [7] = system: mice subjected to restraint stress; experiment: Open field test after restraint stress (Example 1, Experiment 1); assay type: in vivo, C57BL/6 mice; conditions: RS mice, IN cotinine 10 mg/ml, 25 min of testing; p=0.058
# Description: Mice were treated immediately after the 21 days of immobilization stress (6 h/day) until euthanasia. Mice (n=5-8/condition) received daily treatments with 1. PBS (phosphate buffer saline, pH 7.4) via intranasal (2×12 μl/nostril), 2. PBS via gavage (50 μl); 3. Cotinine dissolved in PBS via oral (gavage, (0.5 mg/kg; Cot 0.5); 4. Cotinine dissolved in PBS via intranasal (Cot IN, 10 mg/ml, 2×12 μl/nostril).
# To induce chronic stress, the restraint stress paradigm was used as previously described. Mice are immobilized in 50 ml falcon plastic tubes that were attached to mouse cages. The immobilization proceeded during 6 h from 9:00 AM to 3:00 PM in absence of treatments. Tubes have holes in the opposite side of the tube to allow the animal breathing and urination. Mice were almost completely immobilized for 6 h/day for 21 days after which they were permitted freely to move, eat and drink.
# OF is used to monitor locomotor activity. […] Several parameters including, total distance traveled, speed, rearing behavior and time spent in the center and peripheral zones (20 cm×20 cm) are measured to assess locomotor activity and behavioral changes induced by stress.
structure (smiles),measurement,setting,value
"CN1C(=O)CC[C@H]1c1cccnc1 [Cotinine, (5S)-1-methyl-5-(3-pyridyl) pyrrolidin-2-one]",immobility in the forced swim test,[1],no significant differences
same,"locomotor activity in the open field (distance traveled, speed)",[2],no significant changes in locomotor activity
same,depressive-like behavior induced by stress,[3],substantively decreased depressive-like behavior induced by stress
same,freezing behavior during daily extinction trials (speed of fear extinction),"[4]; 5 days of extinction, daily treatment",faster extinction of fear
same,day on which maximal decrease in freezing was reached,[4]; same time as mice treated with PBS,4 days
same,fear reaction (freezing) in the retention test,"[4]; treatment started 2 h after FC, IN cotinine 10 mg/ml, IN KO 48 mg/ml, oral sertraline 3 mg/kg",significant decrease in the fear reaction in the retention test
same,freezing in the contextual retention test (consolidation of fear memory),"[5]; IN treatment started 2 h after FC, test 24 h after FC",levels of freezing similar to control mice
same,freezing behavior during contextual fear extinction trials,"[5]; daily IN treatment, daily 3 min re-exposure",significant enhancement of memory extinction on day 2 and 3
same,day of maximal decrease in freezing during extinction,"[5]; daily IN treatment, control mice day 5",3 days
same,mean gray value (GFAP IR intensity) in the dentate gyrus,[6],significant increase of the IR intensity
same,number of GFAP+ cells (cell density) in the dentate gyrus,[6],significant increase of cell density
same,percent area fraction occupied by GFAP+ cells in the dentate gyrus,[6],significant increase in the GFAP+ fraction area
same,distance traveled in the open field test,[7],44±18 m
